What all share (assay): relative viability (nuclei count vs DMSO), 5 days (fraction); higher = more cells survive
Compound in assay [1]: CC(C)(C)c1cc(NC(=O)Nc2ccc(-c3cn4c(n3)sc3cc(OCCN5CCOCC5)ccc34)cc2)no1 [Quizartinib] + CC(=O)c1c(C)c2cnc(Nc3ccc(N4CCNCC4)cn3)nc2n(C2CCCC2)c1=O [Palbociclib] (partner 0.5 µM)
The method, boiled down: (§1)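 Lung cancer cell lines in 1536-well plates were dosed by pin tool the day after seeding, either with one drug alone or with a fixed anchor-drug dose plus five library-drug doses (not always all listed) in √10 steps. After 5 days, cells were fixed and their nuclei stained in one step (final 0.05% Triton X-100, 1% formaldehyde, 1 ug/ml Hoechst), then counted on 4× images. Relative viability is the nuclei count in treated wells divided by that in vehicle wells. Values are medians of duplicate plates.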

Compound in the assay “Quizartinib + Alpelisib”: CC(C)(C)c1cc(NC(=O)Nc2ccc(-c3cn4c(n3)sc3cc(OCCN5CCOCC5)ccc34)cc2)no1 [Quizartinib] + Cc1nc(NC(=O)N2CCC[C@H]2C(N)=O)sc1-c1ccnc(C(C)(C)C(F)(F)F)c1 [Alpelisib] (partner 2 µM)
The method, boiled down: as §1

Compound in the assay “YM155 + Pictilisib”: COCC[n+]1c2c(n(Cc3cnccn3)c1C)C(=O)c1ccccc1C2=O [YM155] + CS(=O)(=O)N1CCN(Cc2cc3nc(-c4cccc5[nH]ncc45)nc(N4CCOCC4)c3s2)CC1 [Pictilisib] (partner 1 µM)
The method, boiled down:
as §1

Compound in the assay “YM155 + Pemetrexed”: COCC[n+]1c2c(n(Cc3cnccn3)c1C)C(=O)c1ccccc1C2=O [YM155] + Nc1nc2[nH]cc(CCc3ccc(C(=O)N[C@@H](CCC(=O)O)C(=O)O)cc3)c2c(=O)[nH]1 [Pemetrexed] (partner 0.2 µM)
The method, boiled down:
as §1

Regarding HCC-827, the relative viability is 0.515 in assay [1] (first compound 0.001 µM); 0.471 in assay [1] (first compound 0.003162 µM); 0.65 in assay [1] (first compound 0.03162 µM); 0.471 in assay [1] (first compound 0.1 µM); 0.952 in the assay with Quizartinib + Alpelisib (first compound 0.001 µM); 0.858 with Quizartinib + Alpelisib (first compound 0.003162 µM). Besides, the relative viability with Quizartinib + Alpelisib (first compound 0.01 µM) is 0.965; with Quizartinib + Alpelisib (first compound 0.03162 µM), 0.976; with Quizartinib + Alpelisib (first compound 0.1 µM), 0.987; with YM155 + Pictilisib (first compound 0.002 µM), 1; in the assay with YM155 + Pictilisib (first compound 0.006325 µM) it was 0.763; with YM155 + Pictilisib (first compound 0.02 µM) it was 1. Also, the relative viability in the assay with YM155 + Pictilisib (first compound 0.06325 µM) stood at 1.09; with YM155 + Pemetrexed (first compound 0.002 µM), 0.301; in the assay with YM155 + Pemetrexed (first compound 0.006325 µM) it was 0.328; in the assay with YM155 + Pemetrexed (first compound 0.02 µM) it was 0.253; with YM155 + Pemetrexed (first compound 0.06325 µM) it was 0.303.

For the cell line HOP-62, the relative viability in assay [1] (first compound 0.001 µM) stood at 0.438; in assay [1] (first compound 0.003162 µM), 0.357; in assay [1] (first compound 0.01 µM), 0.526; in assay [1] (first compound 0.03162 µM) it was 0.459; in assay [1] (first compound 0.1 µM), 0.349; with Quizartinib + Alpelisib (first compound 0.001 µM), 0.75. Moreover, the relative viability with Quizartinib + Alpelisib (first compound 0.003162 µM) stood at 0.706; in the assay with Quizartinib + Alpelisib (first compound 0.01 µM), 1.19; with Quizartinib + Alpelisib (first compound 0.03162 µM) it was 1.26; in the assay with Quizartinib + Alpelisib (first compound 0.1 µM), 0.907; in the assay with YM155 + Pictilisib (first compound 0.002 µM), 0.79; with YM155 + Pictilisib (first compound 0.006325 µM), 0.63. The relative viability with YM155 + Pictilisib (first compound 0.02 µM) stood at 0.818; in the assay with YM155 + Pictilisib (first compound 0.06325 µM), 0.749; with YM155 + Pemetrexed (first compound 0.002 µM), 0.372; with YM155 + Pemetrexed (first compound 0.006325 µM), 0.365; with YM155 + Pemetrexed (first compound 0.02 µM) it was 0.325; with YM155 + Pemetrexed (first compound 0.06325 µM), 0.289.

As for IA-LM, the relative viability with Quizartinib + Alpelisib (first compound 0.001 µM) turned out to be 0.695; with Quizartinib + Alpelisib (first compound 0.003162 µM), 0.761; with Quizartinib + Alpelisib (first compound 0.01 µM), 0.808; in the assay with Quizartinib + Alpelisib (first compound 0.03162 µM), 0.789; with Quizartinib + Alpelisib (first compound 0.1 µM), 0.844; in the assay with YM155 + Pictilisib (first compound 0.002 µM), 0.312. Further, the relative viability in the assay with YM155 + Pictilisib (first compound 0.006325 µM) came to 0.266; in the assay with YM155 + Pictilisib (first compound 0.02 µM) it was 0.367; with YM155 + Pictilisib (first compound 0.06325 µM), 0.141.

As for LC-2-ad, the relative viability came out at 0.4 in assay [1] (first compound 0.001 µM); 0.518 in assay [1] (first compound 0.003162 µM); 0.528 in assay [1] (first compound 0.01 µM); 0.508 in assay [1] (first compound 0.03162 µM); 0.461 in assay [1] (first compound 0.1 µM); 0.775 with Quizartinib + Alpelisib (first compound 0.001 µM). Also, the relative viability turned out to be 0.837 in the assay with Quizartinib + Alpelisib (first compound 0.003162 µM); 0.952 with Quizartinib + Alpelisib (first compound 0.01 µM); 0.9 with Quizartinib + Alpelisib (first compound 0.03162 µM); 0.592 with Quizartinib + Alpelisib (first compound 0.1 µM); 0.455 with YM155 + Pictilisib (first compound 0.002 µM); 0.586 with YM155 + Pictilisib (first compound 0.006325 µM). The relative viability in the assay with YM155 + Pictilisib (first compound 0.02 µM) was found to be 0.568; with YM155 + Pictilisib (first compound 0.06325 µM) it was 0.452; with YM155 + Pemetrexed (first compound 0.002 µM), 0.287; with YM155 + Pemetrexed (first compound 0.006325 µM), 0.248; in the assay with YM155 + Pemetrexed (first compound 0.02 µM), 0.28; with YM155 + Pemetrexed (first compound 0.06325 µM) it was 0.262.

On to LCLC-97TM1, for which the relative viability in assay [1] (first compound 0.001 µM) was determined as 0.22; in assay [1] (first compound 0.003162 µM), 0.226; in assay [1] (first compound 0.01 µM) it was 0.219; in assay [1] (first compound 0.03162 µM), 0.241; in assay [1] (first compound 0.1 µM), 0.236; in the assay with Quizartinib + Alpelisib (first compound 0.003162 µM), 0.22. Besides, the relative viability came out at 0.267 with Quizartinib + Alpelisib (first compound 0.01 µM); 0.261 with Quizartinib + Alpelisib (first compound 0.03162 µM); 0.252 in the assay with Quizartinib + Alpelisib (first compound 0.1 µM); 0.184 with YM155 + Pictilisib (first compound 0.002 µM); 0.208 with YM155 + Pictilisib (first compound 0.006325 µM); 0.221 with YM155 + Pictilisib (first compound 0.02 µM). In addition, the relative viability in the assay with YM155 + Pictilisib (first compound 0.06325 µM) amounted to 0.148; with YM155 + Pemetrexed (first compound 0.006325 µM), 0.193; with YM155 + Pemetrexed (first compound 0.02 µM) it was 0.181; with YM155 + Pemetrexed (first compound 0.06325 µM), 0.18.

LCLC-103H: the relative viability in assay [1] (first compound 0.001 µM) stood at 0.38; in assay [1] (first compound 0.003162 µM), 0.506; in assay [1] (first compound 0.01 µM) it was 0.482; in assay [1] (first compound 0.03162 µM), 0.513; in assay [1] (first compound 0.1 µM), 0.558; with Quizartinib + Alpelisib (first compound 0.001 µM) it was 1.01. In addition, the relative viability with Quizartinib + Alpelisib (first compound 0.003162 µM) was found to be 0.533; with Quizartinib + Alpelisib (first compound 0.01 µM), 0.94; with Quizartinib + Alpelisib (first compound 0.03162 µM), 1.04; with Quizartinib + Alpelisib (first compound 0.1 µM), 0.943; in the assay with YM155 + Pictilisib (first compound 0.002 µM), 0.595; with YM155 + Pictilisib (first compound 0.006325 µM), 0.654. The relative viability with YM155 + Pictilisib (first compound 0.02 µM) was 0.668; with YM155 + Pictilisib (first compound 0.06325 µM), 0.508; with YM155 + Pemetrexed (first compound 0.002 µM), 0.473; with YM155 + Pemetrexed (first compound 0.006325 µM), 0.453; with YM155 + Pemetrexed (first compound 0.02 µM), 0.416; in the assay with YM155 + Pemetrexed (first compound 0.06325 µM), 0.463.

LK-2: the relative viability was 0.734 in assay [1] (first compound 0.001 µM); 0.621 in assay [1] (first compound 0.003162 µM); 0.853 in assay [1] (first compound 0.01 µM); 0.599 in assay [1] (first compound 0.03162 µM); 0.69 in assay [1] (first compound 0.1 µM); 1.14 with Quizartinib + Alpelisib (first compound 0.001 µM). Moreover, the relative viability with Quizartinib + Alpelisib (first compound 0.003162 µM) is 1.08; with Quizartinib + Alpelisib (first compound 0.01 µM), 1.04; with Quizartinib + Alpelisib (first compound 0.03162 µM), 1.03; with Quizartinib + Alpelisib (first compound 0.1 µM) it was 1.06; with YM155 + Pictilisib (first compound 0.002 µM), 0.565; in the assay with YM155 + Pictilisib (first compound 0.006325 µM), 0.541. Moreover, the relative viability with YM155 + Pictilisib (first compound 0.02 µM) was 0.475; with YM155 + Pictilisib (first compound 0.06325 µM), 0.53; with YM155 + Pemetrexed (first compound 0.002 µM), 0.276; in the assay with YM155 + Pemetrexed (first compound 0.006325 µM), 0.287; with YM155 + Pemetrexed (first compound 0.02 µM), 0.263; with YM155 + Pemetrexed (first compound 0.06325 µM) it was 0.364.

As for LOU-NH91, the relative viability in assay [1] (first compound 0.001 µM) stood at 0.59; in assay [1] (first compound 0.003162 µM), 0.506; in assay [1] (first compound 0.01 µM), 0.547; in assay [1] (first compound 0.03162 µM) it was 0.577; in assay [1] (first compound 0.1 µM), 0.567; with Quizartinib + Alpelisib (first compound 0.001 µM), 0.683. The relative viability amounted to 0.724 with Quizartinib + Alpelisib (first compound 0.003162 µM); 0.761 with Quizartinib + Alpelisib (first compound 0.01 µM); 0.5 in the assay with Quizartinib + Alpelisib (first compound 0.03162 µM); 0.771 with Quizartinib + Alpelisib (first compound 0.1 µM); 0.495 with YM155 + Pictilisib (first compound 0.002 µM); 0.519 in the assay with YM155 + Pictilisib (first compound 0.006325 µM). For the same cell line, the relative viability with YM155 + Pictilisib (first compound 0.02 µM) stood at 0.578; with YM155 + Pictilisib (first compound 0.06325 µM), 0.535; in the assay with YM155 + Pemetrexed (first compound 0.002 µM), 0.361; in the assay with YM155 + Pemetrexed (first compound 0.006325 µM), 0.356; with YM155 + Pemetrexed (first compound 0.02 µM), 0.346; in the assay with YM155 + Pemetrexed (first compound 0.06325 µM), 0.343.

Turning to LU99A, the relative viability in assay [1] (first compound 0.001 µM) was determined as 0.39; in assay [1] (first compound 0.003162 µM), 0.404; in assay [1] (first compound 0.01 µM), 0.422; in assay [1] (first compound 0.03162 µM) it was 0.432; in assay [1] (first compound 0.1 µM) it was 0.249; with Quizartinib + Alpelisib (first compound 0.001 µM) it was 0.448. For the same cell line, the relative viability worked out at 0.512 in the assay with Quizartinib + Alpelisib (first compound 0.003162 µM); 0.627 with Quizartinib + Alpelisib (first compound 0.01 µM); 0.517 with Quizartinib + Alpelisib (first compound 0.03162 µM); 0.431 with Quizartinib + Alpelisib (first compound 0.1 µM); 0.354 with YM155 + Pictilisib (first compound 0.002 µM); 0.335 in the assay with YM155 + Pictilisib (first compound 0.006325 µM). Besides, the relative viability in the assay with YM155 + Pictilisib (first compound 0.02 µM) was 0.315; with YM155 + Pictilisib (first compound 0.06325 µM), 0.284; with YM155 + Pemetrexed (first compound 0.002 µM) it was 0.164; with YM155 + Pemetrexed (first compound 0.006325 µM), 0.2; with YM155 + Pemetrexed (first compound 0.02 µM), 0.153; in the assay with YM155 + Pemetrexed (first compound 0.06325 µM), 0.177.

The record behind these values is the supplement of paper PMC10307832.
